Paper PMC5349447, “Applying a high-throughput fluorescence polarization assay for the discovery of chemical probes blocking La:RNA interactions in vitro and in cells” (PLoS ONE, 2017)

What was measured:
La-RRM1+2:fD1 complex = experiment: EMSA, compound competition, La-RRM1+2:fD1; type: binding, human; settings: La-RRM1+2 60 nM, fD1 50 nM
Method: (§1) 12% native TBE polyacrylamide gels were prepared in a Mini-PROTEAN Tetra Handcast System (BioRad). The gel was pre-run for 30 min at 140 V in 1x TBE buffer (45 mM Tris/HCl pH 8.5, 45 mM boric acid, 1 mM EDTA). To prepare the RNA-mix, fluorescence labeled RNA oligoribonucleotides (oligos) were diluted in fluorescence polarization buffer (20 mM Tris/HCl (pH 7.4), 150 mM NaCl, 3.0 mM MgCl2, 0.5 mM EDTA, 0.05% (v/v) IGEPAL), mixed for 10 min at 80°C, and then immediately placed on ice for at least 5 min. All RNA oligos were used at a final concentration of 50 nM. Recombinant La protein was diluted in D-buffer (20 mM Tris/ HCl (pH 7.4), 150mM NaCl, 3mM MgCl2, 0.5mM EDTA, 5% glycerol) and placed on ice until use.
(§2) La titration was performed at final concentrations of 20, 40, 60, 100, 200, 300, 400, 500, 600 nM La. Three different La concentrations were used for compound studies: 60 nM for fD1 RNA, 200 nM for fPolyU RNA, and 150 nM for TOPf RNA studies. Two μl of diluted compound (diluted in 100% DMSO) or 2 μl 100% DMSO (control reaction) was combined with 8 μl La-mix in a 96-well plate. 10 μl RNA-mix was added, mixed for 2 min, and incubated for 10 min at RT in the dark. […] The La-RNA complex (La-RNP) formation was quantified using the ImageQuant TL software. […]

La:TOPf complex = tested on: T1, La:TOPf complex; experiment: EMSA, compound competition, La-WT:TOPf; type: binding, human; settings: TOPf 50 nM
T1 construct: His; made in house; host or cells: E. coli BL21
Method: as §1, §2

La:fPolyU complex = tested on: T2, La:fPolyU complex; experiment: EMSA, compound competition, La-WT:fPolyU; type: binding, human
T2 construct: His; made in house; host or cells: E. coli BL21
Method: as §1, §2

SCC 22B cells = experiment: Cisplatin sensitization, CyQUANT, SCC 22B; type: cell-based, human; settings: 50 μM C2.01 pretreatment
Method: To test whether compound C2.01 sensitizes cells for cisplatin, cells were treated with 0.2% DMSO alone, cisplatin at 4, 8, 16, 32 or 64 μM concentration alone or in combination with 50 μM compound C2.01. The half maximal inhibitory concentration (IC50) of cisplatin was determined by treating SCC 22B cells with increasing cisplatin (Selleckchem) concentrations or vehicle (DMSO) for 48 h (96-well format) as described recently. For this experiments 1x10^4 SCC 22B cells were plated the day before the experiment. DMSO or C2.01 was added to a final concentration of DMSO (0.05%) and C2.01 (50 μM). Six hours later the different cisplatin concentrations were added. The highest DMSO concentration of 0.25% was used in the control for cisplatin and C2.01 double treatment. Subsequently, cells were washed twice with 1x PBS and quantified after staining with fluorescence dye (CyQUANT®, Life Technologies) 48 after the initial C2.01 treatment.

HEK293 cells = experiment: HEK293 cell proliferation and viability; type: cell-based, human; settings: data not shown
[1] = tested on: Bcl2 protein level in SCC 22A cells; experiment: Immunoblot for Bcl2, SCC 22A; type: cell-based, human; settings: cisplatin and C2.01 (50 μM) versus vehicle
[2] = tested on: Bcl2 protein level in SCC 22B cells; experiment: Immunoblot for Bcl2, SCC 22B; type: cell-based, human; settings: cisplatin and C2.01 (50 μM) versus vehicle
SCC 22A cells = experiment: Phase contrast microscopy and cisplatin IC50, SCC 22A; type: cell-based, human; settings: C2.01 (50 μM) combined with cisplatin 12 μM

| SMILES | concentration blocking La-RRM1+2:fD1 complex formation (EMSA) (La-RRM1+2:fD1 complex) | impairment of La:TOPf complex formation (EMSA), in words (La:TOPf complex; La-WT 200 nM) | concentration impairing La:PolyU complex formation (EMSA) (La:fPolyU complex; La-WT 200 nM, fPolyU 50 nM, highest concentration tested) | concentration blocking La-WT:TOPf complex formation (EMSA) (La:TOPf complex; La-WT 150 nM) | competition for La:fPolyU complex formation (EMSA), in words (La:fPolyU complex; compared with La:fD1 and La:TOPf) | sensitization of SCC 22B cells for cisplatin treatment (SCC 22B cells) | cell proliferation and viability of HEK293 cells (HEK293 cells; 150 μM or below) | cell proliferation and viability of HEK293 cells (HEK293 cells; 300 or 450 μM) | Bcl2 protein levels (immunoblot) [1] | Bcl2 protein levels (immunoblot) [2] | cell number by phase contrast images (SCC 22A cells) |
| --- | --- | --- | --- | --- | --- | --- | --- | --- | --- | --- | --- |
| O=C(O)c1ccccc1C(=O)c1ccc(O)cc1O [C2, 2-(2,4-dihydroxybenzoyl)benzoic acid] | 5 mM | only at the highest concentration tested | 10 mM |  |  |  |  |  |  |  |  |
| CCOC(=O)c1ccc2c(c1)C1C=CCC1C(C(=O)O)N2 (stereo not drawn) [C6, 8-(ethoxycarbonyl)-3a,4,5,9b-tetrahydro-3Hcyclopenta[c]quinoline-4-carboxylic acid] | 0.01 mM |  |  | 10 µM | weaker competitor |  |  |  |  |  |  |
| Cc1ccc(C(=O)c2ccccc2C(=O)O)c(O)c1 [C2.01, 2-(2-hydroxy-4-methylbenzoyl)benzoic acid] |  |  |  |  |  | sensitizes | not | impaired | reduced | reduced | dramatically reduced cell number |
